Test results as given in US11013696B2, “Lipids and lipid compositions for the delivery of active agents” (Novartis AG, priority 2013, dated 2021).

Legend:
[1] = siRNA encapsulation in lipid nanoparticles (SYBR Gold); type: physicochemical; settings: for % encapsulation siRNA FVII: Table 2, FVII siRNA in LNP with the cationic lipid; for % Encap.: FVII siRNA
In short: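 SYBR Gold fluorescence (ex 485/em 530 nm) of LNPs made by impinging-jet mixing of ethanolic lipids (cationic, cholesterol, optional DSPC, PEG/stealth lipid) with siRNA in citrate pH 4-6, siRNA:lipid ~0.05 wt/wt. Samples with and without Triton X-100 gave free and total siRNA for encapsulation efficiency.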

[2] = Particle size and polydispersity by DLS of RSV-F replicon LNPs; type: physicochemical
Experimental: A self-replicating replicon encoding RSV F protein was administered to BALB/c mice, 8 animals per group, by bilateral intramuscular vaccinations (50 μL per leg) on days 0 and 21 with the replicon (0.1 and 1 ng) formulated as liposomes with the lipids described below. All liposomes tested were composed of 40% cationic lipid, 10% DSPC, 48% cholesterol and 2% PEG-DMG with similar amounts of RNA. The liposomes were all prepared using the same technique as described above.
% entrapment (% E), Concentration of RNA (Conc), particle size measured by DLS, and polydispersity reported by DLS of LNPs prepared with different cationic lipids

RSV F protein = test: RSV immunogenicity: IgG titers after two IM immunizations with vA375 RNA expressing RSV-F in LNPs; type: in vivo, BALB/c mice; settings: IM days 0 and 21, two weeks after two immunizations
[3] = RSV-F replicon LNP prepared for 1st IM
[4] = RSV-F replicon LNP prepared for 2nd IM

% Encap. [1] [%] | Compound | % encapsulation siRNA FVII [1] [%] | PDI [2, 3] | Size [2, 3] [nm] | PDI [2, 4] | Size [2, 4] [nm] | Immunogenicity (2wp2, log10 IgG titers) (RSV F protein; 0.1 ng vA375 RNA) [log10 IgG titers] | Immunogenicity (2wp2, log10 IgG titers) (RSV F protein; 1 ng vA375 RNA) [log10 IgG titers]
– | CCCCCCCCCC(=O)OCCC(CC(CCCCCCCC)CCCCCCCC)OC(=O)OCCCN(C)C (centres unmarked) [Example 70, 3-(((3-(dimethylamino)propoxy)carbonyl)oxy)-5-octyltridecyl decanoate] | 80.0 | 0.121 | 133.7 | 0.118 | 141.7 | 3.90 | 4.37
88.9 | CCCCCCCCCCCCC(CCOC(=O)CCCCC(OCCCCCCCC)OCCCCCCCC)OC(=O)OCCCN(CC)CC (centres unmarked) [Example 16, 3-(((3-(diethylamino)propoxy)carbonyl)oxy)pentadecyl 6,6-bis(octyloxy)hexanoate] | 88.9 | – | – | – | – | – | –
– | CCCCCCCCCCCCC(CCOC(=O)CCCCC(COC(=O)CCCCCCC)COC(=O)CCCCCCC)OC(=O)OCCCN(CC)CC (centres unmarked) [Example 1, 2-(10-dodecyl-3-ethyl-8,14-dioxo-7,9,13-trioxa-3-azaoctadecan-18-yl)propane-1,3-diyl dioctanoate] | – | 0.105 | 139.1 | 0.045 | 131.3 | 3.98 | 4.22
– | CCCCCCCCCCCCC(CCOC(=O)CCCCC(OCC(CC)CCCC)OCC(CC)CCCC)OC(=O)OCCCN(CC)CC (centres unmarked) [Example 18, 3-(((3-(diethylamino)propoxy)carbonyl)oxy)pentadecyl 6,6-bis((2-ethylhexyl)oxy)hexanoate] | 91.2 | 0.13 | 132.2 | 0.065 | 139.8 | 3.5 | 4.26
74.8 | CCCCC/C=C\C/C=C\CCCCCCCCC(CCC(=O)OC(COC(=O)CCCCCCC)COC(=O)CCCCCCC)OC(=O)OCCCN(C)C (centres unmarked) [Example 94, 2-(((13Z,16Z)-4-(((3-(dimethylamino)propoxy)carbonyl)oxy)docosa-13,16-dienoyl)oxy)propane-1,3-diyl dioctanoate] | 74.8 | – | – | – | – | – | –

Compound | % Encap. [1] [%] | % encapsulation siRNA FVII [1] [%] | PDI [2, 3] | Size [2, 3] [nm] | PDI [2, 4] | Size [2, 4] [nm] | Immunogenicity (2wp2, log10 IgG titers) (RSV F protein; 0.1 ng vA375 RNA) [log10 IgG titers] | Immunogenicity (2wp2, log10 IgG titers) (RSV F protein; 1 ng vA375 RNA) [log10 IgG titers]
CCCCC/C=C\C/C=C\CCCCCCCC(=O)OCC(COC(=O)CCCCCCC/C=C\C/C=C\CCCCC)OC(=O)CCC(CCCCCCCCCCCC)OC(=O)OCCCN(C)C (centres unmarked) [Example 80, (9Z,9′Z,12Z,12′Z)-2-((4-(((3-(dimethylamino)propoxy)carbonyl)oxy)hexadecanoyl)oxy)propane-1,3-diyl bis(octadeca-9,12-dienoate)] | 85.2 | 85.2 | – | – | – | – | – | –
